Experimental data taken from patent US20230310428A1, “EGFR INHIBITOR AND PREPARATION METHOD AND USE THEREOF” (HONGYUN BIOTECH CO., LTD., priority 2020, published 2023).
Where two headings read alike, the source gives them in different places.

Key:
Assay in all cases: Growth inhibitory activity of compounds on BaF3 cell lines stably transfected with kinase (MTS, 48 h)
Format in all cases: cell-based
[1] = molecular target: T1, various mutants of kinase EGFR (BaF3 cell lines stably transfected with kinase) (Homo sapiens, UniProt P00533)
T1 construct: other: BaF3 cells stably transfected with EGFR Δ19Del; MTS, 48 h; other: BaF3 cell line stably transfected with EGFR Δ19Del
Method: (§1) The activity of compounds against various mutants of kinase EGFR was evaluated by their effect of inhibiting growth of BaF3 cell lines stably transfected with kinase. The specific test method was given as follows:
(§2) 1) Culture medium: DMEM (Dulbecco’s modified eagle medium) or RPMI 1640 (containing 10% fetal bovine serum, 100 µg/mL ampicillin, 100 µg/mL streptomycin).
(§3) 2) Reagent: MTS reaction solution (containing 2 mg/mL of MTS [3-(4,5-dimethylthiazol-2-yl)-5-(3-carboxymethoxyphenyl)-2-(4-sulfophenyl)-2H-tetrazoliu m, inner Salt]; 100 µg/mL of PES ([…])).
(§4) 3) Compound test: cells were incubated into a 96-well culture plate, the volume of cytosol was 90 µL, and then 10 µL of the compound at each gradient concentration was added. That is, the highest concentration was 10 µM, which was diluted stepwise by ⅓, and 8 concentration points were set in total; 0.1% DMSO (dimethyl sulfoxide) was contained in the system. The cell plate with uniformly mixed compound was cultured in a cell culture incubator (37° C.; 5% CO2) for 48 h, then 20 µL of MTS reaction solution was added, uniformly mixed and incubated in the cell culture incubator (37° C.; 5% CO2) for 1-4 h. OD values at 490 nm were measured by a microplate reader (VARIOSKAN FLASH, Thermo). Two parallels were set in each group of experiments, with 0.1% (a final concentration) DMSO as a negative control, and a culture medium without cells and compounds as a blank control. The cell growth inhibition rate was calculated by the following formula: […]
(§5) 4) IC50 calculation: The semi-inhibitory concentration of the compounds acting on cells was calculated using GradPad Prism 5 software according to the measured cell growth inhibition rate.

[2] = molecular target: T2, various mutants of kinase EGFR (BaF3 cell lines stably transfected with kinase) (Homo sapiens, UniProt P00533, C797S/L858R/T790M)
T2 construct: expressed in transfected cells; host or cells: BaF3
T2 sequence (P00533 25-1210 T790M/C797S/L858R): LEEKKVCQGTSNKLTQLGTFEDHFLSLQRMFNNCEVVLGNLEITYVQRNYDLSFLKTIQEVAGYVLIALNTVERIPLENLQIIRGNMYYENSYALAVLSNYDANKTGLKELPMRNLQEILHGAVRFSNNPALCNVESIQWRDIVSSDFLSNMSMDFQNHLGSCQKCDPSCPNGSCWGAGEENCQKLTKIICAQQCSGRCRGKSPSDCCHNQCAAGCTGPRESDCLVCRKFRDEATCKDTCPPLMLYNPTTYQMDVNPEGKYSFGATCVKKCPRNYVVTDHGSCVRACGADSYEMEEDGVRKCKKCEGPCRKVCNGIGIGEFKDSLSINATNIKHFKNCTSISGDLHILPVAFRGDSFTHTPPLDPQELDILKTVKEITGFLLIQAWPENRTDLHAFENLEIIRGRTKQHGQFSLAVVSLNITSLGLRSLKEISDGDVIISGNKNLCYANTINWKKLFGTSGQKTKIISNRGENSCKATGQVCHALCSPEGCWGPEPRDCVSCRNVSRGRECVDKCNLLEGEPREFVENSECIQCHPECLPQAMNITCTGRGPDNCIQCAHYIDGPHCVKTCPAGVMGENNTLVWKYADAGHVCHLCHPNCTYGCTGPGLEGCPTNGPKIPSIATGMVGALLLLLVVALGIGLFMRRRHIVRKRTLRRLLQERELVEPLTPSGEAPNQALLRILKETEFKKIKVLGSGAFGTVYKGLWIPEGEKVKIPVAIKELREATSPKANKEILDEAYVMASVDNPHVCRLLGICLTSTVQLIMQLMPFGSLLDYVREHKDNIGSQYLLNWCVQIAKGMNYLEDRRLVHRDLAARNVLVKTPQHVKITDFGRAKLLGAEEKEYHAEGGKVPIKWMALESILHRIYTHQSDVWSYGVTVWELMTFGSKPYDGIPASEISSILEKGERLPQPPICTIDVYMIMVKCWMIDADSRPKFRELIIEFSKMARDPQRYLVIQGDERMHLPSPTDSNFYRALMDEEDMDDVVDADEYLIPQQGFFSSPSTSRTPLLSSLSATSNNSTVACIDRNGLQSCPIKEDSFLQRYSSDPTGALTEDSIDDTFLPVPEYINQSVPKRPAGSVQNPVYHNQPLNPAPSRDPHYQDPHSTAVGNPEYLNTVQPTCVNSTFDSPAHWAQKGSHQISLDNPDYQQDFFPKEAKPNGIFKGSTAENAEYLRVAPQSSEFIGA
Method: as §1, §2, §3, §4, §5

[3] = molecular target: T3, various mutants of kinase EGFR (BaF3 cell lines stably transfected with kinase) (Homo sapiens, UniProt P00533, L858R/T790M)
T3 construct: expressed in transfected cells; host or cells: BaF3
T3 sequence (P00533 25-1210 T790M/L858R): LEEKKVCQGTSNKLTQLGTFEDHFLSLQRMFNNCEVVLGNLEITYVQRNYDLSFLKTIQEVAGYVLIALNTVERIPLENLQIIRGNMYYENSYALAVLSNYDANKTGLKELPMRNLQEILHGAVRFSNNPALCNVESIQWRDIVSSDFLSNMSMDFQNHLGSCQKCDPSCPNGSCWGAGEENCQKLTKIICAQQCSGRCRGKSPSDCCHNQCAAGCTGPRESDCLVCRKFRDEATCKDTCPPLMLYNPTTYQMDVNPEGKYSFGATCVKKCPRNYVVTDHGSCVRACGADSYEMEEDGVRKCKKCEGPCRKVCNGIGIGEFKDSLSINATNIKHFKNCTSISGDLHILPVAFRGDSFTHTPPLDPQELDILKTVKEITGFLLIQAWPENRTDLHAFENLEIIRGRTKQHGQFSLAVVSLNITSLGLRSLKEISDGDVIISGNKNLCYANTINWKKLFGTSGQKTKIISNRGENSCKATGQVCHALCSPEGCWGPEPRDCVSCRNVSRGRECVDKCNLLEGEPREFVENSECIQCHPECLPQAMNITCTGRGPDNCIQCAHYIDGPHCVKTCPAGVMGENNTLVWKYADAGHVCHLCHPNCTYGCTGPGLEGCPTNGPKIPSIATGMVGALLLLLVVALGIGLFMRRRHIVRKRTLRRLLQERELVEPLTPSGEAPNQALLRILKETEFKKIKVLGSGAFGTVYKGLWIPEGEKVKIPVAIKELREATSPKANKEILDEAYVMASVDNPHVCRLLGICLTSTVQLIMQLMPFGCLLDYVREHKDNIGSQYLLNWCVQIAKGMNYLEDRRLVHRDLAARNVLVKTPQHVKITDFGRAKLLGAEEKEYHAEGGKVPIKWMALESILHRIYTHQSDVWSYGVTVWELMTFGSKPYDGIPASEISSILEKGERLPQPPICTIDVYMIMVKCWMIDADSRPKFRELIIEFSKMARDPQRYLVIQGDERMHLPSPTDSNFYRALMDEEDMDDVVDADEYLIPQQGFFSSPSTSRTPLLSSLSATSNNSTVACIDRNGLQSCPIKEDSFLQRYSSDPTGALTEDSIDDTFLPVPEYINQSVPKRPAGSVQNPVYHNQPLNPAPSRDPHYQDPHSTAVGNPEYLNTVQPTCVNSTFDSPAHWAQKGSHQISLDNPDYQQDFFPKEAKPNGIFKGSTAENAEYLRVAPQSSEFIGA
Method: as §1, §2, §3, §4, §5

[4] = molecular target: T4, various mutants of kinase EGFR (BaF3 cell lines stably transfected with kinase) (Homo sapiens, UniProt P00533, T790M, form not given)
T4 construct: other: BaF3 cells stably transfected with EGFR Δ19Del/T790M; MTS, 48 h; other: BaF3 cell line stably transfected with EGFR Δ19Del/T790M; MTS, 48
T4 sequence (P00533 with tags, fused parts or gaps DEL746-750/T790M, form open): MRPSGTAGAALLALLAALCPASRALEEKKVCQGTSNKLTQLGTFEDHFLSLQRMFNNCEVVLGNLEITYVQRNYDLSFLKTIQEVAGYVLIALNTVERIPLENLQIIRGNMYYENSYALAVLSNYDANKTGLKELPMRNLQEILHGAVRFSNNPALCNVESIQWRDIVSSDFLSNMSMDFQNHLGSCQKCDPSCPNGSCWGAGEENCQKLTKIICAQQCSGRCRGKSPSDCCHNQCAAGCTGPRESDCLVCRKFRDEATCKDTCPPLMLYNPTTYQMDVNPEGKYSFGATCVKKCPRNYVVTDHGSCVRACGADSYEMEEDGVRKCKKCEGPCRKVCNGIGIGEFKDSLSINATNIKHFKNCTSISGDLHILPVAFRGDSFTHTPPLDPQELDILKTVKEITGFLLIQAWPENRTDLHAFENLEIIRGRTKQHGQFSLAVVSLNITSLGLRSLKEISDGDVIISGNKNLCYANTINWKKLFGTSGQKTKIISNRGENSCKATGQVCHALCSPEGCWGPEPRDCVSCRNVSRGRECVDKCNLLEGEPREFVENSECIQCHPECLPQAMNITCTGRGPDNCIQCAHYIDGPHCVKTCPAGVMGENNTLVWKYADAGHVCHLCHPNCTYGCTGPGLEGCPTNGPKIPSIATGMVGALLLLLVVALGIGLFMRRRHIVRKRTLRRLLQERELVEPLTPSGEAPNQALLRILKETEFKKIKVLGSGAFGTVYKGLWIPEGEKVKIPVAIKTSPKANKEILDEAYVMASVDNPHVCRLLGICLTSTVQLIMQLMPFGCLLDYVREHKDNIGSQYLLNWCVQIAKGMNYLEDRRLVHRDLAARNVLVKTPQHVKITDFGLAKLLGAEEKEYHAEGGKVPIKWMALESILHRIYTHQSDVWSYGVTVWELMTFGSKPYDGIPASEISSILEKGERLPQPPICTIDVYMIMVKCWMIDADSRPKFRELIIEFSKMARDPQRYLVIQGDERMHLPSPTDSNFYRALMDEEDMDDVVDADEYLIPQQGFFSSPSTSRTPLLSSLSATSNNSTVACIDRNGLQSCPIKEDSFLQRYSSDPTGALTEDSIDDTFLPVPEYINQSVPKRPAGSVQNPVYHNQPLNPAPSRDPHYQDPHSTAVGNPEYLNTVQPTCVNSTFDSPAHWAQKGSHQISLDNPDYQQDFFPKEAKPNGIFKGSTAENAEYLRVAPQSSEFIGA
Method: as §1, §2, §3, §4, §5

[5] = molecular target: T5, various mutants of kinase EGFR (BaF3 cell lines stably transfected with kinase) (Homo sapiens, UniProt P00533, T790M/C797S, form not given)
T5 construct: other: BaF3 cells stably transfected with EGFR Δ19Del/T790M/C797S; MTS, 48; other: BaF3 cell line stably transfected with EGFR Δ19Del/T790M/C7
Method: as §1, §2, §3, §4, §5

[6] = molecular target: T6, various mutants of kinase EGFR (BaF3 cell lines stably transfected with kinase) (Homo sapiens, UniProt P00533, L858R)
T6 construct: expressed in transfected cells; host or cells: BaF3
T6 sequence (P00533 25-1210 L858R): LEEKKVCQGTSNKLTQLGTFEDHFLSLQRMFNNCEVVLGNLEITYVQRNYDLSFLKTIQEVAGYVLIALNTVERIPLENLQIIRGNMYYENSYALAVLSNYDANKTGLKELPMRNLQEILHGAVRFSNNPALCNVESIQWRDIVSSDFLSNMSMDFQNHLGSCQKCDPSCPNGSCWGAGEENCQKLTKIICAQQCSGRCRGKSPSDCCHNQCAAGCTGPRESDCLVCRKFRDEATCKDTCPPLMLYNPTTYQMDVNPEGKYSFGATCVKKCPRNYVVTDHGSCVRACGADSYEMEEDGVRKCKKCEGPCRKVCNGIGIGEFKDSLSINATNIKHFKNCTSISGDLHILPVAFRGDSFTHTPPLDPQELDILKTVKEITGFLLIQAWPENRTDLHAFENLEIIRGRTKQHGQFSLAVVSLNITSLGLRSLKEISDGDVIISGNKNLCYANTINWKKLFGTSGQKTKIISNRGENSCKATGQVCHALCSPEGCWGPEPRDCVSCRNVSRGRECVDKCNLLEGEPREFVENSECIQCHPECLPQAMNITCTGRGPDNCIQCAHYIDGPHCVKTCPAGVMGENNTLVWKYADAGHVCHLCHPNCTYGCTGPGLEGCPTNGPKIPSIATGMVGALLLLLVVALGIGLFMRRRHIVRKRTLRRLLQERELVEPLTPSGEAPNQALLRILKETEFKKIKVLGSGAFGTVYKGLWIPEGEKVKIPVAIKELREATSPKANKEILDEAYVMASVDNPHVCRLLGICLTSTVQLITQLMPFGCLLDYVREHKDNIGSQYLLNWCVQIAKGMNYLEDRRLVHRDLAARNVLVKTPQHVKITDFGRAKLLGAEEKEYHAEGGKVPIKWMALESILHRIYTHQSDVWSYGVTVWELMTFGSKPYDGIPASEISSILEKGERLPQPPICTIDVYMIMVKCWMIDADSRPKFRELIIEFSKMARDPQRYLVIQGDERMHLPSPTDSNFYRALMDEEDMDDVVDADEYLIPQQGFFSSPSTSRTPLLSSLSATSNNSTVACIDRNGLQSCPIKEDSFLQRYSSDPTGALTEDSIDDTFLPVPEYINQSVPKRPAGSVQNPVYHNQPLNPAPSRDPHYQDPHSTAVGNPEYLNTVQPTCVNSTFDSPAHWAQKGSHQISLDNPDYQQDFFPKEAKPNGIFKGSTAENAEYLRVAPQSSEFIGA
Method: as §1, §2, §3, §4, §5

[7] = BaF3 cells stably transfected with EGFR Δ19Del, read-out: IC50, growth inhibition, Δ19Del
[8] = BaF3 cells stably transfected with EGFR L858R/T790M/C797S, read-out: IC50, growth inhibition, L858R/T790M/C797S
[9] = BaF3 cells stably transfected with EGFR L858R/T790M, read-out: IC50, growth inhibition, L858R/T790M
[10] = BaF3 cells stably transfected with EGFR Δ19Del/T790M, read-out: IC50, growth inhibition, Δ19Del/T790M
[11] = BaF3 cells stably transfected with EGFR Δ19Del/T790M/C797S, read-out: IC50, growth inhibition, Δ19Del/T790M/C797S
[12] = BaF3 cells stably transfected with EGFR L858R, read-out: IC50, growth inhibition, L858R
[13] = BaF3 cell line stably transfected with EGFR Δ19Del, read-out: Δ19Del growth inhibitory activity IC50
[14] = BaF3 cell line stably transfected with EGFR L858R/T790M/C797S, read-out: L858R/T790M/ C797S growth inhibitory activity IC50
[15] = BaF3 cell line stably transfected with EGFR L858R/T790M, read-out: L858R/ T790M growth inhibitory activity IC50
[16] = BaF3 cell line stably transfected with EGFR Δ19Del/T790M, read-out: Δ19Del/ T790M growth inhibitory activity IC50
[17] = BaF3 cell line stably transfected with EGFR Δ19Del/T790M/C797S, read-out: Δ19Del/T790M/ C797S growth inhibitory activity IC50
[18] = BaF3 cell line stably transfected with EGFR L858R, read-out: L858R growth inhibitory activity IC50

IC50 [1, 7] [nM] | IC50 [2, 8] [nM] | IC50 [3, 9] [nM] | IC50 [4, 10] [nM] | IC50 [5, 11] [nM] | IC50 [6, 12] [nM] | IC50 [1, 13] [nM] | IC50 [2, 14] [nM] | IC50 [3, 15] [nM] | IC50 [4, 16] [nM] | IC50 [5, 17] [nM] | IC50 [6, 18] [nM] | SMILES
≤ 50 | ≤ 50 | ≤ 50 | ≤ 50 | ≤ 50 | ≤ 50 |  |  |  |  |  |  | CCc1cc(Nc2ncc(OC)c(Nc3ccc4nccnc4c3N(C)S(C)(=O)=O)n2)c(OC)cc1N1CCC(N(C)C)CC1 [Compound I-282]
 |  |  |  |  |  | 50 to 500 | 50 to 500 | 50 to 500 | ≤ 50 | 50 to 500 | 50 to 500 | CCc1cc(Nc2ncc(Br)c(Nc3ccc4nccnc4c3NS(C)(=O)=O)n2)c(OC(F)(F)F)cc1N1CCC(N2CCN(C)CC2)CC1 [Compound I-405]
 |  |  |  |  |  | 500 to 2500 | 500 to 2500 | 500 to 2500 | 50 to 500 | 500 to 2500 | 500 to 2500 | COc1cc(N2CCC(N3CCN(C)CC3)CC2)c(Cc2ccccc2)cc1Nc1nc(Nc2ccc3nccnc3c2N(C)S(C)(=O)=O)c2occc2n1 [II-1-44]
50 to 500 | ≤ 50 | ≤ 50 | ≤ 50 | ≤ 50 | 50 to 500 |  |  |  |  |  |  | COc1cc(N2CCN(C)CC2)ccc1Nc1ncc(Br)c(Nc2ccc3nccnc3c2N(C)S(C)(=O)=O)n1 [Compound I-38]
≤ 50 | ≤ 50 | ≤ 50 | ≤ 50 | ≤ 50 | ≤ 50 |  |  |  |  |  |  | COc1cc(N2CCC(N(C)C)CC2)c(C)cc1Nc1ncc(C2CC2)c(Nc2ccc3nccnc3c2N(C)S(C)(=O)=O)n1 [Compound I-272]
 |  |  |  |  |  | ≤ 50 | ≤ 50 | ≤ 50 | ≤ 50 | ≤ 50 | ≤ 50 | CCc1cc(Nc2ncc(Br)c(Nc3ccc4nccnc4c3NS(C)(=O)=O)n2)c(OC)cc1N1CCC(N(C)C)CC1 [Compound I-410]
 |  |  |  |  |  | 500 to 2500 | 50 to 500 | 50 to 500 | 500 to 2500 | 50 to 500 | 500 to 2500 | COc1cc(N2CCN(C)CC2)c(C)cc1Nc1nc(Nc2ccc3nccnc3c2N(C)S(C)(=O)=O)c2sccc2n1 [II-1-12]
500 to 2500 | 50 to 500 | 500 to 2500 | 500 to 2500 | 50 to 500 | 500 to 2500 |  |  |  |  |  |  | COc1cc(N2CCC(N3CCN(C)CC3)CC2)c(CC2CC2)cc1Nc1ncc(Cl)c(Nc2ccc3nccnc3c2N(C)S(=O)(=O)C(F)(F)F)n1 [Compound I-264]
≤ 50 | ≤ 50 | ≤ 50 | ≤ 50 | ≤ 50 | ≤ 50 |  |  |  |  |  |  | CCc1cc(Nc2ncc(Br)c(Nc3ccc4nccnc4c3N(C)S(C)(=O)=O)n2)c(OC)cc1N1CCC(N(C)C)CC1 [Compound I-16]
500 to 2500 | 500 to 2500 | 500 to 2500 | 500 to 2500 | 500 to 2500 | 500 to 2500 |  |  |  |  |  |  | COc1cc(N2CCC(N3CCN(C)CC3)CC2)c(Cc2ccccc2)cc1Nc1ncc(F)c(Nc2ccc3nccnc3c2N(C)S(C)(=O)=O)n1 [Compound I-182]
50 to 500 | 50 to 500 | ≤ 50 | ≤ 50 | ≤ 50 | 50 to 500 |  |  |  |  |  |  | CCS(=O)(=O)N(C)c1c(Nc2nc(Nc3cc(CC4CC4)c(N4CCC(N5CCN(C)CC5)CC4)cc3OC)ncc2Cl)ccc2nccnc12 [Compound I-235]
≤ 50 | ≤ 50 | ≤ 50 | ≤ 50 | ≤ 50 | ≤ 50 |  |  |  |  |  |  | CCc1cc(Nc2ncc(C)c(Nc3ccc4nccnc4c3N(C)S(C)(=O)=O)n2)c(OC)cc1N1CCC(N(C)C)CC1 [Compound I-279]
≤ 50 | ≤ 50 | ≤ 50 | ≤ 50 | ≤ 50 | ≤ 50 |  |  |  |  |  |  | CCc1cc(Nc2ncc(F)c(Nc3ccc4nccnc4c3N(C)S(C)(=O)=O)n2)c(OC)cc1N1CCC(N2CCN(C)CC2)CC1 [Compound I-26]
≤ 50 | ≤ 50 | ≤ 50 | ≤ 50 | ≤ 50 | ≤ 50 |  |  |  |  |  |  | CCc1cc(Nc2ncc(F)c(Nc3ccc4nccnc4c3N(C)S(C)(=O)=O)n2)c(OC)nc1N1CCC(N2CCN(C)CC2)CC1 [Compound I-177]
500 to 2500 | 500 to 2500 | 500 to 2500 | 50 to 500 | 500 to 2500 | 500 to 2500 |  |  |  |  |  |  | COc1cc(N2CCC(N3CCN(C)CC3)CC2)c(Cc2ccccc2)cc1Nc1ncc(Cl)c(Nc2ccc3nccnc3c2N(C)S(C)(=O)=O)n1 [Compound I-168]
500 to 2500 | ≤ 50 | 50 to 500 | 50 to 500 | ≤ 50 | 500 to 2500 |  |  |  |  |  |  | CCOc1cc(N2CCN(C)CC2)ccc1Nc1ncc(Br)c(Nc2ccc3nccnc3c2N(C)S(C)(=O)=O)n1 [Compound I-39]
 |  |  |  |  |  | 500 to 2500 | 50 to 500 | 500 to 2500 | 500 to 2500 | 50 to 500 | 500 to 2500 | COc1ccc(N2CCC(O)CC2)cc1Nc1ncc(F)c(Nc2ccc3nccnc3c2N(C)S(C)(=O)=O)n1 [Compound I-367]
 |  |  |  |  |  | 50 to 500 | 50 to 500 | ≤ 50 | ≤ 50 | 50 to 500 | 50 to 500 | CCc1cc(Nc2ncc(C(C)C)c(Nc3ccc4nccnc4c3N(C)S(C)(=O)=O)n2)c(OC)nc1N1CCC(N2CCN(C)CC2)CC1 [Compound I-328]
500 to 2500 | 50 to 500 | 50 to 500 | 50 to 500 | ≤ 50 | 50 to 500 |  |  |  |  |  |  | CCc1cc(Nc2ncc(Br)c(Nc3ccc4nccnc4c3N(C)S(=O)(=O)C(F)(F)F)n2)c(OC)cc1N1CCC(N2CCN(C)CC2)CC1 [Compound I-125]
≤ 50 | ≤ 50 | ≤ 50 | ≤ 50 | ≤ 50 | ≤ 50 |  |  |  |  |  |  | CCc1cc(Nc2ncc(Br)c(Nc3ccc4nccnc4c3N(C)S(=O)(=O)C3CC3)n2)c(OC)cc1N1CCC(N2CCN(C)CC2)CC1 [Compound I-105]
 |  |  |  |  |  | 500 to 2500 | 500 to 2500 | 500 to 2500 | 500 to 2500 | 500 to 2500 | 500 to 2500 | COc1nc(N2CCC(N3CCN(C)CC3)CC2)c(C)cc1Nc1nc(Nc2ccc3nccnc3c2N(C)S(C)(=O)=O)c2[nH]ccc2n1 [II-1-28]
50 to 500 | 50 to 500 | ≤ 50 | ≤ 50 | 50 to 500 | 50 to 500 |  |  |  |  |  |  | CCc1cc(Nc2ncc(C3CC3)c(Nc3ccc4nccnc4c3N(C)S(C)(=O)=O)n2)ccc1N1CCC(N2CCN(C)CC2)CC1 [Compound I-293]
≤ 50 | ≤ 50 | ≤ 50 | ≤ 50 | ≤ 50 | ≤ 50 |  |  |  |  |  |  | CCc1cc(Nc2ncc(Cl)c(Nc3ccc4nccnc4c3N(C)S(=O)(=O)CC)n2)c(OC)cc1N1CCC(N(C)C)CC1 [Compound I-117]
